From publication PMC2710984 (International Journal of Peptide Research and Therapeutics, 2006)
Several values for one entry are separate records, joined by “and”; a condition that tells them apart may be missing. Equal values may be shown once. Square brackets hold non-standard residues; d marks the D form. Ends that are not written are not given here. Peptide text beside a SMILES is read from it. Abu = CC[C@H](N)C(=O)O; Lac = C[C@H](O)C(=O)O

biological target: XIAP BIR3 (Homo sapiens, UniProt P98170); experiment: Peptide–BIR3 binding assay; settings: not given
Sequence (P98170 241-356 limits assumed): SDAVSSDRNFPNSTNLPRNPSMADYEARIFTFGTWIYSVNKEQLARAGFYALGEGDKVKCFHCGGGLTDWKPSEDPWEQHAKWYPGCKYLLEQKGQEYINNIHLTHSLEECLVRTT

Row | Molecule | IC50 [nM]
1 | CC(C)C[C@H](NC(=O)[C@H](C)N)C(=O)N1CCC[C@H]1C(=O)N[C@@H](Cc1ccccc1)C(N)=O [Compound 15, ALPF] (H-ALPF-NH2) | 180
2 | CC[C@H](C)[C@H](NC(=O)[C@H](C)N)C(=O)N1CCC[C@H]1C(=O)N[C@@H](Cc1ccccc1)C(N)=O [Compound 16, AIPF] (H-AIPF-NH2) | 80
3 | CC(C)[C@H](NC(=O)[C@H](C)N)C(=O)N1C[C@H](O)C[C@H]1C(=O)N[C@@H](Cc1ccccc1)C(N)=O [Compound 20, AV–Hyp–F] | 1000

Other lines, results leading:

Row | IC50 [nM] | Molecule
4 | > 10000 | CC(C)[C@H](NC(=O)[C@H](C)N)C(=O)N1CCC[C@H]1C(N)=O [Compound 5, AVP] (H-Ala-Val-Pro-NH2)
5 | 750 | CC(C)[C@H](NC(=O)[C@H](C)N)C(=O)N[C@@H](C)C(=O)N[C@@H](Cc1ccccc1)C(N)=O [Compound 6, AVAF]
6 | 340 | CC[C@H](C)[C@H](NC(=O)[C@H](C)N)C(=O)N[C@@H](C)C(=O)N[C@@H](Cc1ccc(O)cc1)C(N)=O [Compound 8, AIAY] (H-AIAY-NH2)
7 | 120 | CC[C@H](N)C(=O)N[C@H](C(=O)N1CCC[C@H]1C(=O)N[C@@H](Cc1ccccc1)C(N)=O)C(C)C [Compound 9, Abu–VPF] (H-[Abu]VPF-NH2)
8 | 1000 | CC(C)[C@H](NC(=O)[C@@H](N)CO)C(=O)N1CCC[C@H]1C(=O)N[C@@H](Cc1ccccc1)C(N)=O [Compound 10, SVPF] (H-SVPF-NH2)
9 | > 1600 | CC(C)[C@H](NC(=O)[C@H](C)O)C(=O)N1CCC[C@H]1C(=O)N[C@@H](Cc1ccccc1)C(N)=O [Compound 14, Lac–VPF] (H-[Lac]VPF-NH2)
10 | 200 | C[C@H](N)C(=O)N[C@H](C(=O)N1CCC[C@H]1C(=O)N[C@@H](Cc1ccccc1)C(N)=O)[C@@H](C)O [Compound 17, ATPF] (H-ATPF-NH2)
11 | 300 | AVPIA-NH2 [Compound 3, AVPIA]

same assay, conditions: IC50, inhibition of Smac–BIR3 interaction, FMAT

Row | Molecule | IC50
12 | AVPIAQ-NH2 [Compound 2, AVPIAQ] | 270 nM
13 | AVPIAQK-NH2 [Compound 1, AVPIAQK] | 400 nM and 390 nM

biological target: GST–BIR3 (Homo sapiens, UniProt P98170); experiment: not given; format: biochemical; settings: not given
Sequence (P98170 241-356 limits assumed): as above

Row | Molecule | IC50 [nM]
14 | AVPFAQK-NH2 [AVPFAQK] | 2000
15 | AVPIAQK-NH2 [Compound 1, AVPIAQK] | 3000

tested on: XIAP BIR3 domain; experiment: not given; settings: ref Nikolovska-Coleska et al., 2004; cited from earlier work

Row | Molecule | IC50 [nM]
16 | CCCCCCCCCCCC1=C(O)C(=O)C=C(O)C1=O [Embelin] | 4100
